One assay has as its system human neutrophils. The assay is described as follows: Inhibition of superoxide (O₂⁻) generation from neutrophils. The format is cell-based. To be noted: Neutrophil. The text has this: (§1) The one assay provides IC₅₀'s for the inhibition of superoxide generation. DeChatelet, L. R., Shirley, P. S. and Johnson, R. B. 1976. Effect of phorbol myristate acetate on the oxidative metabolism of human polymorphonuclear leukocytes. Blood 47:545-554. The other assay is a generally recognized in vivo assay to show activity useful for treating ARDS. The in vivo assay is described in J. Clin. Invest., Vol. 69, May 1982, pp 1126-1135.
The activity for each of these compounds as numbered above is expressed as IC₅₀'s for the inhibition of superoxide generation and is shown in the following Table A: TABLE A
Further, activity for compounds of examples noted in the following Table A₁ likewise show IC₅₀'s for the inhibition of superoxide generation. TABLE A1

Assay [1] concerns CVF Induced Lung Injury in Rats. Nature of the assay: Inhibition of cobra venom factor (CVF) induced lung injury in rats (in vivo ARDS assay). Particulars: for Lung Injury (x ± SEM): saline control 0.20 ± 0.01, CVF alone 1.45 ± 0.19.
Description: as §1
Accordingly, the compounds of the Formula II are now found to be particularly useful for treating ARDS shown by the inhibition of cobra venom factor (CVF) induced lung injury in rats using the Compound No. 1 above in the in vivo assay shown as follows in Table B: TABLE B

The mark [2] stands for this setting: Table A, read-out: IC₅₀ (µM) Inhibition of O₂⁻ generation from neutrophils.
The mark [3] stands for this setting: given intravenously (20 mg/kg) 10 minutes before intravenous injection of CVF.
Setting [4] is: injected intraperitoneally (20 mg/kg) 20 minutes before CVF.
The mark [5] stands for this setting: Table A1, read-out: IC₅₀ (µM) Inhibition of O₂⁻ generation from neutrophils.

Where two headings read alike, the source gives them in different places. Some results are limits rather than exact numbers.

For the compound `COc1ccc2sc(C(=O)Nc3nnn[nH]3)c(OCc3ccccc3)c2c1` [compound 5, 3-Benzyloxy-5-methoxy-N-1H-tetrazol-5-yl-benzo[b]thiophene-2-carboxamide], in the assay with human neutrophils (setting [2]), the IC50 stood at 23 µM.
Same read-out and setting: with `COc1ccc2sc(C(=O)Nc3nnn[nH]3)c(SC(C)C)c2c1` [compound 3, 5-Methoxy-3-[(1-methylethyl)thio-N-1Htetrazol-5-yl]-benzo[b]thiophene-2-carboxamide] the figure was 23 µM; with `COc1ccc2sc(C(=O)Nc3nnn[nH]3)c(Oc3ccccc3)c2c1` [compound 6, 5-Methoxy-3-phenoxy-N-1H-tetrazol-5-yl-benzo[b]thiophene-2-carboxamide], 10 µM.
For the compound `COc1ccc2sc(C(=O)Nc3nnn[nH]3)c(OC(C)C)c2c1` [Compound No. 1, 5-Methoxy-3-(1-methylethoxy)-N-1H-tetrazol-5-yl-benzo[b]thiophene-2-carboxamide], in the assay with human neutrophils (setting [2]), the IC50 was 19 µM. In assay [1] (setting [3]), the “Protection % Inhibition of Injury” value worked out at 76% and the “Lung Injury (x ± SEM)” value is on record as 0.48 ± 0.08. Also, in assay [1] (setting [4]), the “Protection % Inhibition of Injury” value was 58% and the “Lung Injury (x ± SEM)” value was 0.73 ± 0.06.
In the case of `COc1ccc2c(OC(C)C)c(C(=O)Nc3nnn[nH]3)sc2c1` [compound 2, 6-Methoxy-3-(1-methylethoxy)-N-1H-tetrazol-5-yl-benzo[b]thiophene-2-carboxamide], the IC50 with human neutrophils (setting [2]) stood at 37 µM.
In the case of `COc1cc2sc(C(=O)Nc3nnn[nH]3)c(Oc3ccccc3)c2cc1OC` [Example C21], the IC50 in the assay with human neutrophils (setting [5]) is 6 µM.
For the compound `COc1ccc2c(OC(C)C)c(C(=O)Nc3nnn[nH]3)oc2c1` [compound 4, 6-Methoxy-3-(1-methylethoxy)-N-1H-tetrazol-5-yl-2-benzofurancarboxamide], the IC50 with human neutrophils (setting [2]) was 75 µM.
For the compound `CC(C)Oc1c(C(=O)Nc2nnn[nH]2)sc2ccc(O)cc12` [Example C20A, 3-(1-Methylethoxy)-5-hydroxy-N-1H-tetrazol-5-yl-benzo[b]-thiophene-2-carboxamide], the IC50 in the assay with human neutrophils (setting [5]) is 48 µM.
Turning to `COc1cc2sc(C(=O)Nc3nnn[nH]3)c(OCc3ccccc3)c2cc1OC` [Example C21A, 5,6-Dimethoxy-3-(phenylmethoxy)-N-1H-tetrazol-5-yl-benzo[b]thiophene-2-carboxamide], the IC50 in the assay with human neutrophils (setting [5]) amounted to 40 µM.
Still for that read-out and setting: with `COc1ccc2c(Oc3ccccc3)c(C(=O)Nc3nnn[nH]3)sc2c1` [Example C21D, 6-Methoxy-3-phenoxy-N-1H-tetrazol-5-yl-benzo[b]thiophene-2-carboxamide] the figure was over 100 µM.

Source of the values: patent EP0299457A2, “Novel benzothiophenes having antiallergic activity and both novel and other selected benzothiophenes having activity for treating acute respiratory distress syndrome” (WARNER-LAMBERT COMPANY, priority 1987, dated 1989).
